The record followed here is patent US20040142048A1, “Compositions based on proanthocyanadin-catechin synergies for prevention and treatment of cancer” (priority 2004, published 2004).

One series concerns cancer cells. Briefly: Effect of EGCg on cancer cell growth and apoptosis. The format is cell-based.
Series [1] is described as follows: Clearance of EGCg from the blood. The following applies: in vivo.

With (−)-epigallocatechin gallate [EGCg], the “time cancer cells must be inhibited from growing before EGCg-induced apoptosis occurs” value in the series on cancer cells was in the range of 48 to 72 h. The “growth of cancer cells challenged with EGCg” value in the series on cancer cells (10^−7 M EGCg every two hours during the day) is given as “growth is inhibited”. Further, the “reversibility of the effect on cancer cell growth” value in the series on cancer cells (EGCg removed, cells resume normal rates of growth) was “reversible”. Besides, the “clearance from the blood” value in series [1] is “rapidly cleared from the blood and metabolized”.
